{
  "source": "patent US9994533B2",
  "about": "“Method of preparing ATG's analogue, and the application of ATG and it's analogue” (Longhua Hospital Shanghai University of Traditional Chinese …, priority 2016, dated 2018)",
  "target": "T1, PP2A (Homo sapiens, UniProt P62714)",
  "T1 construct": "endogenous in cells; host or cells: 293T",
  "T1 sequence (P62714 whole entry)": "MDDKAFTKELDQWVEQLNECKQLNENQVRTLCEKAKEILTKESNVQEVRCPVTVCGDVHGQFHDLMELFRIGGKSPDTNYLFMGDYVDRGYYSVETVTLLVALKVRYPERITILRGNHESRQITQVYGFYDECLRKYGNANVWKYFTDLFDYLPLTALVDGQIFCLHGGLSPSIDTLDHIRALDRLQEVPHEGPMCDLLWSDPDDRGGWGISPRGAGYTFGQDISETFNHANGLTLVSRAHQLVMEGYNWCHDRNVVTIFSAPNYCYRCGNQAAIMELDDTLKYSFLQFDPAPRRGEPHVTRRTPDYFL",
  "assay": "PP2A activity in 293T cells stimulated with ATG analogues",
  "assay_type": "cell-based",
  "conditions": "10 μM, DMSO as reference, FIG. 11",
  "method": "The biological activities of the three compounds were determined by measuring the downstream PP2A activity and the degree of phosphorylation of NF-kB. […] The concentrations of ATG and the three new compounds were 10 μM.",
  "data": [
    {"substance": "Potassium trifluoro (4-(5-(3,4,5-trimethoxyphenyl)-1,2,4-oxadiazol-3-yl) phenyl) borate [BT282]", "values": [
      {"measurement": "effect on PP2A activity relative to native ATG", "value": "higher activity to PP2A than natural ATG"}
    ]}
  ]
}
